Assay results reported in ChEMBL document CHEMBL1201862, “PubChem BioAssay data set” (2004).
Calls of active or inactive are those of the source.

Assays:
[1] = Luminescence Cell-Based Dose Response HTS to Identify Inhibitors of 5'UTR Stem-Loop Driven Prion Protein mRNA Translation in H4 Neuroglioblastoma Cells. [Related pubchem assays: 1827 (Project Summary), 1813 (Primary HTS)]; format: functional
[2] = HEK-293T viability loss after treatment – luminescence, T-cell screen hits, cytotoxicity control for TCR NF-kB inhibitor project, dose response (AID 489026); format: functional, cell-based;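 also: cells exposed to compound about 14 hours before the viability readout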
[3] = alpha-synuclein stem-loop luciferase translation blockers – H4 neuroglioma cells, luminescence, confirmation (AID 1988); format: functional, cell-based
[4] = luciferase reporter signal suppression in cells – H4 neuroglioma cells, luminescence, dose response (AID 1990); format: functional, cell-based
[5] = molecular target: Induced myeloid leukemia cell differentiation protein Mcl-1 (Homo sapiens, UniProt Q07820); format: functional
Induced myeloid leukemia cell differentiation protein Mcl-1, sequence (Q07820 whole entry): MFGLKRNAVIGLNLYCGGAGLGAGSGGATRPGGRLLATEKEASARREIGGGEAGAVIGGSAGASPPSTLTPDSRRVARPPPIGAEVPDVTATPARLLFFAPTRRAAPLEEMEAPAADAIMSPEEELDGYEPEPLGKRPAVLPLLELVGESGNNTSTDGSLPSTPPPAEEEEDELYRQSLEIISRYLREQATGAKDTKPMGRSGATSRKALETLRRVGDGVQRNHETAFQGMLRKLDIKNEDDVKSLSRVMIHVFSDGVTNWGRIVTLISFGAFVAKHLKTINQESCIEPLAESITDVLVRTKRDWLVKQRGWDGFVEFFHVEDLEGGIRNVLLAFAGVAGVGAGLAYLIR

[6] = molecular target: T1, Histone-lysine N-methyltransferase NSD2 (Homo sapiens, UniProt O96028); format: biochemical
T1 sequence (O96028 whole entry): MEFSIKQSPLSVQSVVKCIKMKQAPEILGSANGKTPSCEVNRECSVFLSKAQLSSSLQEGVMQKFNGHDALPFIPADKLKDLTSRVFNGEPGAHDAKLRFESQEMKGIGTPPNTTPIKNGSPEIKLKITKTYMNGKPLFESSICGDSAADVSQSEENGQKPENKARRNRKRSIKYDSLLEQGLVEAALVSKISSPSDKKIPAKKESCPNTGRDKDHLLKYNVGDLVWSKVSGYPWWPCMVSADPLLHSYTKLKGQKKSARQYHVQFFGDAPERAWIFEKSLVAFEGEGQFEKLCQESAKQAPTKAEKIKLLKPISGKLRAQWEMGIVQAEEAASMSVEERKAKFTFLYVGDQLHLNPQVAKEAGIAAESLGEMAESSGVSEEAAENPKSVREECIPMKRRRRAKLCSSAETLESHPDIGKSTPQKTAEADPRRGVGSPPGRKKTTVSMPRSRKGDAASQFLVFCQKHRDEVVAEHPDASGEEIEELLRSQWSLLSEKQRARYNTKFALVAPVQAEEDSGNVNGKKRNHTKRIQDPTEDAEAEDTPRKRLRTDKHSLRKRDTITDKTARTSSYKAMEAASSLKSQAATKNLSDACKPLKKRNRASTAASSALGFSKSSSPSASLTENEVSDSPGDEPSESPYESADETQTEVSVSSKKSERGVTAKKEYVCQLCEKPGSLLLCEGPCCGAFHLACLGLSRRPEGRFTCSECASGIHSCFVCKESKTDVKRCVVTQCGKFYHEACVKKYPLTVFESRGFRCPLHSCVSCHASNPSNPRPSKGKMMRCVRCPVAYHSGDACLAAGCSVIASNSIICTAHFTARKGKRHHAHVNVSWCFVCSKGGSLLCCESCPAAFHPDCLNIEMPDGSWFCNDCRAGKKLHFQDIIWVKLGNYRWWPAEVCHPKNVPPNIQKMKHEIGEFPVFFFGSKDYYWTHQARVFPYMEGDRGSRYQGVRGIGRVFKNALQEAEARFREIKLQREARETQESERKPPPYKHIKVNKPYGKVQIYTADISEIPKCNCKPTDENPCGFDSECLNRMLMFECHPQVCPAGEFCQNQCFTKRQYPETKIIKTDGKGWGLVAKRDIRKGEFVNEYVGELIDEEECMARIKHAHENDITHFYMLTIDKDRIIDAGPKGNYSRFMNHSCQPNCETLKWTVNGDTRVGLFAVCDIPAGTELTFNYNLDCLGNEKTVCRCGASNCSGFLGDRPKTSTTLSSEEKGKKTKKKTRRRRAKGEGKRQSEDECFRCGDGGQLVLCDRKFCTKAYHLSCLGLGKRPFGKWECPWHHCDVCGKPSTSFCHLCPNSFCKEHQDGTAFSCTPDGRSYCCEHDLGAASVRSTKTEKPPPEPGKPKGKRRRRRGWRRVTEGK

[7] = molecular target: T2, Short transient receptor potential channel 4 (Mus musculus, UniProt Q9QUQ5); assay: block of DAMGO-driven TRPC4 calcium entry – cell-based, HEK293 TRPC4/mu-opioid, Fluo-4 calcium, dose response (AID 434942); format: functional;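 also: potency of inhibitors blocking the TRPC4 calcium response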
T2 sequence (Q9QUQ5 whole entry): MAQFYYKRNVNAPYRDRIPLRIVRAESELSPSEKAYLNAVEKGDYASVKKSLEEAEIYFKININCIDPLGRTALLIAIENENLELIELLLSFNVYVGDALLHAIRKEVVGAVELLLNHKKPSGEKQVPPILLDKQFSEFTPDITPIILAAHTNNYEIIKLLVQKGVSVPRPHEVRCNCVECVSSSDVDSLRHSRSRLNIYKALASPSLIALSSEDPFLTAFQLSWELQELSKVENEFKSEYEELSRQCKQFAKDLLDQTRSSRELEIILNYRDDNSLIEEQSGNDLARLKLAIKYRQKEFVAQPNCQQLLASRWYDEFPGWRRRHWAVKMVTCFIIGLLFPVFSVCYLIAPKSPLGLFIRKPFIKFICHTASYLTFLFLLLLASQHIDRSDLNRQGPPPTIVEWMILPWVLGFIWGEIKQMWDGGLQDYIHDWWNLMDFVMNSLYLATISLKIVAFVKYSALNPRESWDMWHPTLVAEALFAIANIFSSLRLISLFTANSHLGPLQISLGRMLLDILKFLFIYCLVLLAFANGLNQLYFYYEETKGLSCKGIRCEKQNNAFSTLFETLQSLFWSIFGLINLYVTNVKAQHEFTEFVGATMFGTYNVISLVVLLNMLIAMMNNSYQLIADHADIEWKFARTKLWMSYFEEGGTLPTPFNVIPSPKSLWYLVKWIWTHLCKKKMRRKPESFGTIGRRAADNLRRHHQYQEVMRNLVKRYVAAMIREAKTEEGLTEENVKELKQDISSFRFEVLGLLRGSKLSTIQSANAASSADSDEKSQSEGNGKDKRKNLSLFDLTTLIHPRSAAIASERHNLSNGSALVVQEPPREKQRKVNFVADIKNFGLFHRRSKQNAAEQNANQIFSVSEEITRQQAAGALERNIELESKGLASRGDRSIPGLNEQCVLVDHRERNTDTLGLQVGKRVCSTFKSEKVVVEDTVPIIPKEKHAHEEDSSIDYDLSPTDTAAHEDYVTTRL

HEK293 [8] = assay: cells; format: functional, cell-based; conditions: Homo sapiens
HEK293 [9] = assay: NOD2 signaling inhibitors in MDP-stimulated cells, cell-based, uHTS, luminescence (AID 2001); format: functional; conditions: Homo sapiens
HEK293 [10] = assay: inhibition of NOD1-driven NF-kB reporter – cell-based, luminescence, uHTS, primary screen (AID 1578); format: functional; conditions: Homo sapiens
HEK293 [11] = assay: cells; format: functional, cell-based; conditions: Homo sapiens; remark: listed apart in the source
INS1 = assay: INS-1E survival protection against cytokine death – cell-based, luminescence, retest, dose response (AID 449756); format: functional; conditions: Rattus norvegicus;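 also: cell death triggered by IL-1 beta plus TNF-alpha plus IFN-gamma mixture; protective hits raise ATP signal compared with cytokine alone wells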
cells [12] = format: functional, cell-based
cells [13] = format: functional, cell-based; remark: listed apart in the source
[14] = microbe, parasite or virus in culture; format: functional; conditions: Mycobacterium tuberculosis
cells [15] = format: functional
[16] = Luminescence Cell-Based Dose Retest to Confirm Inhibitors of Cancer Stem Cells. [Related pubchem assays (depositor defined):AID2717, AID2721]; format: functional, Homo sapiens; conditions: Homo sapiens
[17] = molecular target: FAD-linked sulfhydryl oxidase ALR (Homo sapiens, UniProt P55789); assay: ALR-catalysed DTT oxidation blockers – biochemical, H2O2 detection, luminescence, cherry-pick, dose response (AID 493248)
FAD-linked sulfhydryl oxidase ALR, sequence (P55789 whole entry): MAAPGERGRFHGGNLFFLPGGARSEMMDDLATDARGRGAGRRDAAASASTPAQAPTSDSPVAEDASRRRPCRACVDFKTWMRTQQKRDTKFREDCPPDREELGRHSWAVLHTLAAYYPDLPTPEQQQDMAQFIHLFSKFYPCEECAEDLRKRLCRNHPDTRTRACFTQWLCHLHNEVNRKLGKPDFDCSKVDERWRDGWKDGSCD

[18] = molecular target: T3, Rac GTPase-activating protein 1 (Homo sapiens, UniProt Q9H0H5); assay: blockers of MgcRacGAP-driven Rac1 GTP hydrolysis – biochemical, ADP Hunter fluorescence, primary and confirmatory, confirmation (AID 624330); format: functional
T3 sequence (Q9H0H5 whole entry): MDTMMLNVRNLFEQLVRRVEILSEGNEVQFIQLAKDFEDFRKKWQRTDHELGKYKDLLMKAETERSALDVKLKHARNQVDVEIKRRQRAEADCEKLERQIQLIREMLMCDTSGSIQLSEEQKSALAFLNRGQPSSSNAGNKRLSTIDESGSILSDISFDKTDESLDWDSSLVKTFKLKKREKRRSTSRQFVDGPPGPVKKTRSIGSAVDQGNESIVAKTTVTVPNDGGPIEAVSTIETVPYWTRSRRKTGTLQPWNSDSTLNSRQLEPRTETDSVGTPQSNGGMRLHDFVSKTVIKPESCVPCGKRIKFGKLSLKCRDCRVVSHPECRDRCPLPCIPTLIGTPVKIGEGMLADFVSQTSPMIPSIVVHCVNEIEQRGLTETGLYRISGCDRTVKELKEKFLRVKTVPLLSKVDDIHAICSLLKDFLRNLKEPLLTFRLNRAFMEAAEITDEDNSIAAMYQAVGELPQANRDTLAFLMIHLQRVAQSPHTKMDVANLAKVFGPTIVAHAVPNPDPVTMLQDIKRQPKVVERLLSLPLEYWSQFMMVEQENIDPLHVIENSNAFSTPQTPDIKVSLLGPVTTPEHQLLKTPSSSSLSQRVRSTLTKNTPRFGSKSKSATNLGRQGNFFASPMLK

[19] = molecular target: T4, Heat shock factor protein 1 (Mus musculus, UniProt P38532); assay: decrease of HSF1-responsive luciferase luminescence – cell-based, NIH3T3, dose retest, confirmation (AID 2382); format: functional;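 also: NIH3T3 fibroblasts with HSF1-driven luciferase reporter stressed by proteasome inhibitor MG132; luminescence from HSF1-driven luciferase expression after 8 hours of MG132 stress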
T4 sequence (P38532 whole entry): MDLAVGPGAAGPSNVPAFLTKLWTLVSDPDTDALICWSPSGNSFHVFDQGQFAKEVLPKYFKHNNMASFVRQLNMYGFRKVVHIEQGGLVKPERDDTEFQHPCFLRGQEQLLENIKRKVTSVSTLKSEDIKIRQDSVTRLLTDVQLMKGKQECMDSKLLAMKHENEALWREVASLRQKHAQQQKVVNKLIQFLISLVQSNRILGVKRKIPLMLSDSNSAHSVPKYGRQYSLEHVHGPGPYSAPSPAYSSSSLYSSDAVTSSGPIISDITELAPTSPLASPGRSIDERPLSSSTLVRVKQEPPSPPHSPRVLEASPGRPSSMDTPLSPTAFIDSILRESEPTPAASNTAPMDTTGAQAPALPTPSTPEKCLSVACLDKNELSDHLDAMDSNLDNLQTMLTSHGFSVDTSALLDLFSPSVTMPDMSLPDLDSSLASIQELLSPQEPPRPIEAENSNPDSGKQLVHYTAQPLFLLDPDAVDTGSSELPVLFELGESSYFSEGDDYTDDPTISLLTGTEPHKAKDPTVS

[20] = viability of uninfected HEp-2 cells – cell-based, HTS, cytotoxicity control for RSV inhibitor project, dose response (AID 2410); format: functional; conditions: human respiratory syncytial virus
[21] = Trypanosoma cruzi growth suppression in host cells – NIH3T3 host cells, beta-gal luminescence, confirmation (AID 2044); format: functional, cell-based;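 also: intracellular parasites grown in NIH/3T3 mouse fibroblasts as host cells; luminescent beta-galactosidase reporter signal from transgenic T. cruzi replicating inside host cells; inhibitors lower the luminescence signal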
[22] = NIH3T3 cell viability loss – ATP luminescence, mouse fibroblasts, counter-screen, dose response (AID 2010); format: functional, cell-based;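 also: cells exposed to compound for about 90 hours before reading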

## CCOc1ccc(S(=O)(=O)N2c3ccccc3CC2C)cc1 (stereo unspecified)
[1]
  EC50: 7.42 µM (active)
[2]
  IC50: > 80 µM (inactive)
[3]
  EC50: 3.2 µM (active)
[4]
  EC50: 7.65 µM (inconclusive)

## CNCc1ccccc1OCc1ccccc1F
[5]
  IC50: 0.557 µM (active)
[6]
  AC50: > 20 µM (inactive)

## CCC1(C(=O)c2ccccc2)C(c2ccc([N+](=O)[O-])cc2)C1(C(=O)OC)C(=O)OC (stereo unspecified)
[7]
  EC50: 4.22 µM (active)

## Cc1nn(C(=O)c2cccc([N+](=O)[O-])c2)c(C)c1Sc1ccccc1
[7]
  EC50: 2.66 µM (active)

## O=C(c1[nH]nc2c1CCc1ccccc1-2)N1CCN(Cc2ccc3c(c2)OCO3)CC1
HEK293 [8]
  IC50: 4.07 µM (active)
HEK293 [9]
  IC50: 5.11 µM (active)
HEK293 [10]
  EC50: 5.4 µM (active)
HEK293 [11]
  IC50: 8.27 µM (active)

## C=C1C(O)[C@@H]2O[C@]3(CC[C@H](/C=C/C(C)[C@@H]4CC(C)=CC5(O[C@H](C[C@@](C)(O)CO)CCC5O)O4)O3)CC[C@H]2O[C@@H]1C(O)CC(C)[C@H]1OC2(CCCCO2)CCC1C (stereo partly specified)
[2]
  IC50: > 80 µM (inactive)
INS1
  AC50: 5.98 µM (active)

## CCC(=O)N1CCc2cc(S(=O)(=O)NCCC(=O)N3CCN(c4cccc(OC)c4)CC3)ccc21
Cells [12]
  EC50: > 350 µM (not active)
Cells [13]
  EC50: > 350 µM (not active)

## Cn1c(CNc2ccccc2O)nc2ccccc21
[14]
  CC50: 30.4 µM (active)
Cells [15]
  IC50: 4.79 µM (active)

## COc1cc(-c2noc(C)c2/C=C/c2ccc(OC(C)=O)cc2)cc(OC)c1OC
[2]
  IC50: 52.8 µM (inactive)
[16]
  AC50: 0.222 µM (active)

## Cc1c(C(=O)OC2CCCC2)[nH]c2c1C(=O)CC(c1ccco1)C2 (stereo unspecified)
[2]
  IC50: > 80 µM (inactive)

## O=C(CSc1nnc(-c2ccncc2)o1)N1CCCCCC1
Cells [12]
  EC50: > 350 µM (not active)
Cells [13]
  EC50: > 350 µM (not active)

## CCS(=O)(=O)N1CCN(C(C)CCc2ccccc2)CC1 (stereo unspecified)
[5]
  IC50: 6 µM (not active)

## Nc1ccc(N2CCN(c3ccccc3)CC2)c(F)c1
[17]
  AC50: 13.2 µM (active)
[18]
  IC50: 46.6 µM (active)

## COc1ccc(Nc2ncnc3ccc(Br)cc23)c(OC)c1
[2]
  IC50: > 80 µM (inactive)
[19]
  EC50: 0.354 µM (active)

## c1ccc2[nH]c(SCc3cn4cccnc4n3)nc2c1
[17]
  AC50: 0.194 µM (active)

## NC(=O)c1nsc(C(=O)N(Cc2ccco2)C(C(=O)NCC2CCCO2)c2ccc(F)cc2)c1N (stereo unspecified)
[7]
  EC50: 10.6 µM (active)

## COc1ccc(/C=C/CN2CCC(CO)(Cc3ccccc3Cl)CC2)cc1
[14]
  CC50: 32.7 µM (active)

## CCN(CC)c1ccc([N+](=O)[O-])c2cccnc12
[20]
  CC50: 36.7 µM (active)
[7]
  EC50: 10.6 µM (active)

## CCCCOc1ccc(CSCCN=C(N)N)cc1
[7]
  EC50: 3.35 µM (active)

## CC(C)CCN1CCN(Cc2ccsc2)CC1CCO (stereo unspecified)
[7]
  EC50: 4.22 µM (active)

## O=C1NC(=S)N/C1=C/c1cccn1-c1ccc([N+](=O)[O-])cc1
[5]
  IC50: 4.63 µM (not active)

## COc1ccc2c(c1)c(C(=O)CN1CCc3ccccc3C1)c(C)n2C
Cells [12]
  EC50: > 350 µM (not active)
Cells [13]
  EC50: > 350 µM (not active)

## Cc1cc(C(=O)NNc2ccccc2F)no1
[21]
  EC50: 2.26 µM (active)
[17]
  AC50: 5.7 µM (active)
[22]
  EC50: 5.14 µM (active)
